These results are taken from patent publication US20080318892A1, “METHODS AND FORMULATIONS FOR PROTECTING CELLS, AND FOR TREATING DISEASES AND CONDITIONS BY OPTIMIZING THE INTRACELLULAR CONCENTRATION OF NAD” (priority 2007, published 2008).

In one experiment the target is T1, Nampt (Homo sapiens, UniProt P43490).
T1 construct: endogenous in cells; host or cells: human vascular SMCs (primary and HITC6), whole cell lysates
Put plainly: Nicotinamide phosphoribosyltransferase (Nampt/PBEF) activity in SMC lysates, [14C]nicotinamide to NMN. The class given is cell-based. How it is done:
Nicotinamide Phosphoribosyltransferase Activity. […] Labelled acetone-precipitable nicotinamide mononucleotide was quantified by scintillation counting.
Assessment of Nicotinamide Phosphoribosyltransferase Activity. […] Briefly, SMCs were lysed in buffer containing 10 mM NaH2PO4/Na2HPO4, at pH 8.8. Cell lysates were incubated with 0.5 μM [carbonyl-^14C]nicotinamide and 0.5 mM phosphoribosylpyrophosphate for 4 h on a rotating rocker at 37° C.

In a further experiment the test system is HITC6 SMCs. Put plainly: Senescence-associated beta-galactosidase activity / senescence-free survival. Format: cell-based, human. As to conditions: successive subcultures incubated with 10 nM FK866; p<0.0001. How it is done:
Senescence-associated β-Galatosidase Activity Assay. SMCs on glass coverslips at approximately 70% confluence were fixed in 2% formaldehyde/0.2% glutaraldehyde in PBS for 3 minutes and incubated with X-gal-containing reaction mixture, as previously described (Dimri, 1995). Washed cells were stained with Hoechst 33258 (2.5 μg/ml) and the proportion of senescence-associated β-galactosidase (SA β-Gal)-positive cells quantified from 10 microscope fields of view (Olympus BX51, ×20 objective, approximately 1200 cells). Senescence-free survival was determined using Kaplan-Meier analysis of survival vs. replicative age.
Senescence-associated Beta-galactosidase Activity. Senescence-associated beta-galactosidase (SA-β-gal) activity was determined as previously described (Dimri et al, 1995). Briefly, SMCs were fixed in PBS containing 2% formaldehyde/0.2% glutaraldehyde for 3 min at room temperature. Fixed cells were then incubated for 4-6 h at 37° C. with SA-β-gal stain solution containing 150 mM NaCl, 2 mM MgCl, 40 mM citrate, 5 mM potassium ferrocyanide, 5 mM potassium ferricyanide, and 1 mg/ml of 5-bromo-4-chloro-3-indolyl-β-D-galactopyranoside (X-gal) (Invitrogen, Carlsbad, Calif., USA), at pH 6.0. SMCs were counterstained with 2.5 μg/ml Hoechst 33258 to detect cell nuclei. The proportion of SA-β-gal activity positive cells was quantified using light and fluorescence microscopy (Olympus BX51, Center Valley, Pa., USA).

The test system of another experiment is SIRT1. Put plainly: SIRT1 deacetylase activity in live SMCs (Fluor de Lys-SIRT1 substrate, TSA-independent). Format: cell-based, human. As to conditions: HITC6 SMCs incubated with 10 nM FK866, 48 h. How it is done:
In vivo assessment of SIRT1 deacetylase activity. Cell-based assessment of SIRT1-like enzymatic activity was performed using the Fluor de lys-SIRT1 substrate (Biomol, Plymouth Meeting, Pa.), as previously described (de Boer, 2006). SMCs in phenol-red free M199 with 5% FBS were incubated for 2 h with 5 μM TSA followed by addition of the fluorogenic substrate for 4 h. Signal was quantified by spectrofluorimetry (Wallac, Wellesley, Mass.) and normalized to total protein content.
Assessment of SIRT1 Deacetylase Activity. SIRT1 deacetylase activity was quantified in live cells as previously reported (de Boer et al, 2006). SMCs cultured in phenol red-free M199 were incubated without serum for 2 h with 1 μM trichostatin A (Sigma, St. Louis, Mo., USA) followed by addition of 25 μM Fluor-de-Lys-SIRT1 fluorogenic substrate (Biomol, Plymouth Meeting, Pa., USA) for 4 h. Media containing fluorogenic substrate and reaction product was incubated with an equal volume of SIRT1 assay buffer containing 2 mM nicotinamide and developer (Biomol, Plymouth Meeting, Pa., USA). Signal was quantified by spectrofluorometry (Wallac VICTOR-1420, PerkinElmer Life Science, Waltham, Mass., USA) and normalized to total protein content

T1 sequence (P43490 whole entry): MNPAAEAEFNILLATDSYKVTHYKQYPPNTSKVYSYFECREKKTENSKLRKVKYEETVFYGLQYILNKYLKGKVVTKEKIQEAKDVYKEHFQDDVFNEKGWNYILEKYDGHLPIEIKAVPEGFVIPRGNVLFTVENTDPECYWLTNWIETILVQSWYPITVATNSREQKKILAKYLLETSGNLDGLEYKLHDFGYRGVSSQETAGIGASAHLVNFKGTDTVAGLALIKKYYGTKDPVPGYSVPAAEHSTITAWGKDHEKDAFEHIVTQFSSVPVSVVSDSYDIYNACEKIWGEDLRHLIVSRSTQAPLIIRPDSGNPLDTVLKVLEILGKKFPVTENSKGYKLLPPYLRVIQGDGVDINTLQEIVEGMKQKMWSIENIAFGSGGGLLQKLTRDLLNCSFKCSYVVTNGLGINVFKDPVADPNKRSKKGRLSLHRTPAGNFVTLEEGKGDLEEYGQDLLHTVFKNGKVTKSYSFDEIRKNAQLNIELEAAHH

In the case of `O=C(/C=C/c1cccnc1)NCCCCC1CCN(C(=O)c2ccccc2)CC1` [FK866, reference compound], the “PBEF activity in SMCs, % of baseline” value at Nampt (10 nM FK866) amounted to 22±2%. For the same compound, on Nampt (SMCs incubated with 10 nM FK866, p<0.001), the “Nampt activity relative to basal level” value was 0.11±0.05. The “senescence-free survival (Kaplan-Meier)” value in the experiment with HITC6 SMCs was “substantially shortened”. Also, in the experiment on SIRT1, the SIRT1 activity entry was “substantial loss”.
